# Measured values: patent US9642835B2, “Modulators of GTPase and use in relevant treatment” (STC.UNM, priority 2010, dated 2017)
# pEC50: −log10 of the molar value.
# How the values were obtained:
# Cdc42 ACT (Cdc42Q61L) = Cdc42 ACT (Cdc42Q61L) (Homo sapiens, UniProt P60953, Q61L); experiment: Bead-based flow cytometry dose response, BODIPY-FL-GTP binding; conditions: in the presence of Mg ions; read-out: EC50 for Cdc42(Q61L)
# Experimental: (§1) Bead sets for multiplex assays were custom synthesized by Duke Scientific Corp (Fremont, Calif.), but may now be ordered from Thermo/Fisher. […] Negative controls, contained the bead mixture with fluorescent GTP, 0.5 mM unlabeled GTP as a competitor, and 1% DMSO. […] The resulting time-dependent data (one file per plate) were analyzed using IDLQuery software to determine the compound activity in each well. Gating based on forward scatter (FS) and side scatter (SS) parameters was used to identify singlet bead populations. Gating based on FL8 emission distinguishes the beads coated with different proteins, and the median fluorescence per bead population was calculated. […] Baselines were set to 100% based on measurements from the 1% DMSO containing positive controls as further described in PubChem. {PubChem #72}
# (§2) Briefly, compounds were serially diluted 1:3 a total of eight times from a starting concentration of 10 mM giving a 9-point dilution series in DMSO. The final concentrations of inhibitors in the assay ranged from 10 nM to 100 μM. Dose-response analyses were examined in the presence of NP-HPS buffer containing: a) 1 mM EDTA; or b) 1 mM MgCl2. […] For assays with EDTA we used one multiplex (Rab7 wt, Rab2 wt, H-Ras wt, H-RasG12V, Cdc42 wt, and Cdc42Q61L) and 3 single-plexes (for Rac1 wt, Rac1 Q61L and GST-GFP).
# (§3) GTPase activators were identified on the basis of an increase in fluorescent GTP-binding.
# (§4) In experiments including magnesium, six GST-GTPases were assayed simultaneously in a single multiplex (Rac1 wt, Rac1Q61L, RhoA wt, RhoAL63, Cdc42 wt and Cdc42Q61L) and 1 nM BODIPY-FL-GTP binding was measured in the presence or absence of the serial drug dilution series. Each dose response series was run in duplicate.
# Cdc42 WT = molecular target: T1, Cdc42 WT (Homo sapiens, UniProt P60953); experiment: as above; conditions: in the presence of Mg ions; read-out: EC50 for Cdc42 wt
# T1 construct: purchased Cytoskeleton
# T1 sequence (P60953 whole entry): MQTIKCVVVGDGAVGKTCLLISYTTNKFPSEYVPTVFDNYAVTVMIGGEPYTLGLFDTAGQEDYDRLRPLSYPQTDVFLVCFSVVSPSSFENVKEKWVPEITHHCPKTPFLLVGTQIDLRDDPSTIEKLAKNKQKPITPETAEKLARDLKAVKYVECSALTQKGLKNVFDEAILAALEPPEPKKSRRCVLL
# Experimental: as §1, §2, §3, §4
# Chain of Cdc42 ACT (Cdc42Q61L) (P60953 whole entry Q61L): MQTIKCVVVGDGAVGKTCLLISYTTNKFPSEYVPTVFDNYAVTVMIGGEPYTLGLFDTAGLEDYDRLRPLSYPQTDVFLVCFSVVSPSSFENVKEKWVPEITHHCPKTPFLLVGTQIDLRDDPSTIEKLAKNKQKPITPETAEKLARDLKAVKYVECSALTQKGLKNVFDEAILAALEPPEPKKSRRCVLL
structure (smiles),measurement,setting,value
"COc1ccc(C2CC(c3ccccc3)=NN2c2ccc(S(N)(=O)=O)cc2)cc1 (centres unmarked) [MLS000693334, 4-[3-(4-methoxyphenyl)-5-phenyl-3,4-dihydropyrazol-2-yl]benzenesulfonamide]",pEC50,Cdc42 ACT (Cdc42Q61L),~5.40
same,pEC50,Cdc42 WT,~5.40
